Test results: publication PMC12250893, “Systematic Characterization of In Vitro and In Vivo Metabolic Pathways and Identification of Novel Biomarkers of 26 Synthetic Cannabinoids” (Molecules, 2025)
Entries after “also recorded” stand apart in the source; their conditions may differ.

Test: Human liver microsomal incubation (in vitro metabolic model)
Settings: HLM, 37 °C 1 h, then UDPGA 30 min; peak area of parent in experimental group vs degradation control group
Method: Each of the 26 SCs was configured to 1 mg/mL with acetonitrile. The HLMs, NADPH regeneration solution A, regeneration solution B, and UDPGA solution were thawed at 4 °C. An icebox was prepared, and all additional steps were performed on ice. For this, 10 µL of NADPH regeneration solution A, 2 µL of regeneration solution B, 2 µL of SCs standard, and 10 µL of mixed human liver microsomes were added to 176 µL of 0.1 mol/L phosphate buffer. The mixture was mixed thoroughly and incubated at 37 °C for 1 h. Subsequently, 20 µL of UDPGA solution was added and mixed well, followed by an additional incubation for 30 min. The reaction was stopped by adding 200 µL of ice-cold acetonitrile. Additionally, the negative control group and the degradation control group were set up following the same procedure. […] The unadded components were supplemented with an equal amount of phosphate buffer. All samples were centrifuged at a high speed of 13,500 r for 10 min after reaction termination. The supernatant was collected and subsequently passed through a membrane filter (0.45 μm) prior to sampling.
The samples were separated and analyzed using a UHPLC-Q-Exactive Orbitrap MS system (Thermo Fisher Scientific, Waltham, MA, USA), which comprised a Thermo-Scientific™ Q-Exactive™(Thermo Fisher Scientific, Waltham, MA, USA) quadrupole electrostatic field orbitrap mass spectrometer coupled to a Vanquish ultrahigh-performance liquid chromatography (UHPLC) system (Thermo Fisher Scientific, Waltham, MA, USA) with a heated electrospray ionization HESI source in the positive ionization mode. The samples were separated on an ACQUITY UPLC BEH C18 Column (100 × 2.1 mm, 1.7 μm) with the column temperature maintained at 30 °C. The chromatographic separation was achieved using a gradient elution program with mobile phase A consisting of 0.1% formic acid in water and mobile phase B containing 0.1% formic acid in acetonitrile. The gradient profile was programmed as follows: Initial conditions were maintained at 5% B from 0 to 1 min, followed by a linear increase to 95% B from 1 to 11 min; the 95% B composition was held from 11 to 15.5 min, then decreased back to 5% B from 15.5 to 16 min, and finally maintained at 5% B from 16 to 18 min. The flow rate was set at 0.3 mL/min, and the injection volume was 10 μL for all analyses.
The following HESI source conditions were adopted: Acquisition mode was set to positive ion mode; the capillary temperature was maintained at 325 °C, the auxiliary gas heater temperature was set to 350 °C, and the spray voltage was applied at 3.7 kV. The mass spectrometry analysis was carried out in full-scan (FS) mode to trigger data-dependent acquisition in tandem mass spectrometry (FS-ddMS^2) mode. The FS data acquisition was performed using the following parameters: a resolution of 60,000, an automatic gain control (AGC) target of 1 × 10^6, a scan range of m/z 66.7–1000, and a maximum injection time (IT) of 250 ms. The ddMS^2 data acquisition was performed using the following parameters: a resolution of 30,000; an automatic gain control (AGC) target of 1 × 10^5; normalized collision energies (NCEs) of 20, 40, and 70 eV; and a maximum injection time (IT) of 50 ms.
Data acquisition was executed utilizing Xcalibur 4.3 software (Thermo Fisher Scientific, Waltham, MA, USA). The subsequent analysis of the acquired data was conducted using Thermo Fisher Scientific […] 3.2 software (Thermo Fisher Scientific, Waltham, MA, USA). The workflow’s nodes employed specific parameters: a mass tolerance of 5 ppm, a signal-to-noise threshold of 3, a minimum peak intensity of 1 × 10^5, a maximum peak width of 0.8 min, and a minimum of 3 scans per peak.

SMILES	Conversion Rate
COC(=O)C(NC(=O)c1nn(CCCCCF)c2ccccc12)C(C)(C)C (stereo not shown) [5F-ADB]	88.1%
CCOC(=O)C(NC(=O)c1nn(CCCCCF)c2ccccc12)C(C)C (stereo not shown) [5F-EMB-PINACA]	100.0%
COC(=O)C(NC(=O)c1cn(CCCCCF)c2ccccc12)C(C)(C)C (stereo not shown) [5F-MDMB-PICA]	95.9%
CC(C)(C)C(NC(=O)c1nn(CC2CCCCC2)c2ccccc12)C(N)=O (stereo not shown) [ADB-CHMINACA]	62.8%
CC1(C)C(C(=O)c2cn(Cc3ccc(F)cc3)c3ccccc23)C1(C)C [FUB-144]	30.4%
CCCCCn1cc(C(=O)c2ccc3ccccc3c2)cc1-c1ccccc1F [JWH-307]	55.2%
CCCCCn1cc(C(=O)c2ccc3ccccc3c2)cc1-c1ccccc1C [JWH-370]	42.0%
C=CCCCn1nc(C(=O)NC(C(=O)OC)C(C)(C)C)c2ccccc21 (stereo not shown) [MDMB-4en-PINACA]	69.7%
CCCCCn1cc(C(=O)C2C(C)(C)C2(C)C)c2ccccc21 [UR-144]	30.5%

Same assay, conditions: following human liver microsomal incubation

SMILES	Phase II metabolites detected	metabolites detected	Phase I metabolites detected	metabolic pathways involved
CCOC(=O)C(NC(=O)c1nn(CCCCCF)c2ccccc12)C(C)C (stereo not shown) [5F-EMB-PINACA]	one	eleven		
COC(=O)C(NC(=O)c1cn(CCCCCF)c2ccccc12)C(C)(C)C (stereo not shown) [5F-MDMB-PICA]	two	fourteen	twelve	eight

Same assay, conditions: human liver microsomal incubations

SMILES	most prevalent Phase II metabolic reaction	predominant Phase I metabolic reactions
CCOC(=O)C(NC(=O)c1nn(CCCCCF)c2ccccc12)C(C)C (stereo not shown) [5F-EMB-PINACA]	glucuronidation	ester hydrolysis and hydroxylation
COC(=O)C(NC(=O)c1cn(CCCCCF)c2ccccc12)C(C)(C)C (stereo not shown) [5F-MDMB-PICA]	glucuronidation	ester hydrolysis and hydroxylation

Test: Rat metabolic model, metabolite identification
Format: in vivo
Settings: not given
Method: (§1) Sprague-Dawley male rats (200 ± 20 g) were obtained from SPF (Beijing) Biotechnology Co., Ltd. (Beijing, China). The animals were housed under controlled environmental conditions: Temperature was maintained at 20–25 °C, humidity at 50 ± 10%, and a 12/12 h light/dark cycle was applied. They had ad libitum access to standard laboratory chow and filtered water. A two-week acclimatization period was provided before the experiments began. The 26 SC standards were prepared in normal saline at concentrations of 0.5 mg/mL, 0.1 mg/mL, and 0.05 mg/mL. Each rat was weighed before administration, and the injection dose was adjusted based on body weight. The dosing volume for each rat was maintained at approximately 200 µL.
(§2) 162 Sprague-Dawley (SD) rats were randomly divided into 27 groups, with six rats in each group. The control group received an injection of normal saline, while the remaining groups were injected with 26 different types of SCs. The dosage administered was determined based on pre-experimental results, specifically selecting the dose that produced the highest level of metabolites in the blood samples collected 1 h after tail vein injection at concentrations of 0.5 mg/kg, 0.1 mg/kg, and 0.05 mg/kg, as shown in Table 6. Subsequently, tail vein administration was conducted at the specified dosage. The orbital venous blood was taken from the outer canthus of the rat with capillaries at 15 min and 1 h. Feces were collected after the blood. The rats were then sacrificed, and their brains and livers were dissected. Samples were immediately frozen in liquid nitrogen and stored at −80 °C until analysis.
(§3) For blood samples, 0.5 mL of each sample was mixed with 1.0 mL of acetonitrile. For brain samples, 0.2 g of tissue was combined with 0.5 mL of acetonitrile. For liver samples, 0.5 g of tissue was mixed with 0.5 mL of acetonitrile. For feces samples, 0.2 g of sample was combined with 1 mL of acetonitrile-water (3:1) for grinding and homogenization. Each mixture was sonicated for 40 min, allowed to precipitate at 4 °C for 30 min, and then centrifuged at 13,500 rpm for 10 min. The supernatant was filtered using a syringe filter (0.45 μm) for further testing.

SMILES	key Phase I metabolic reactions	most significant Phase II metabolic processes
CCOC(=O)C(NC(=O)c1nn(CCCCCF)c2ccccc12)C(C)C (stereo not shown) [5F-EMB-PINACA]	oxidative defluorination and hydroxylation	sulfation and arginine binding reactions
COC(=O)C(NC(=O)c1cn(CCCCCF)c2ccccc12)C(C)(C)C (stereo not shown) [5F-MDMB-PICA]	oxidative defluorination and hydroxylation	sulfation and glycoside binding reactions

Same assay, conditions: tail vein injection

SMILES	Phase II metabolites identified	metabolic pathways associated	metabolites identified	Phase I metabolites identified
CCOC(=O)C(NC(=O)c1nn(CCCCCF)c2ccccc12)C(C)C (stereo not shown) [5F-EMB-PINACA]	3	eight	13	
COC(=O)C(NC(=O)c1cn(CCCCCF)c2ccccc12)C(C)(C)C (stereo not shown) [5F-MDMB-PICA]	five	seven	twelve	seven

Test: Clinical symptoms of rats in metabolic model
Format: in vivo, rat
Settings: SD rats, dose 0.05-0.5 mg/kg per Table 6
Method: as §1, §2

SMILES	Animal manifestations after tail vein drug injection
COC(=O)C(NC(=O)c1nn(CCCCCF)c2ccccc12)C(C)(C)C (stereo not shown) [5F-ADB]	hematuria
CCOC(=O)C(NC(=O)c1nn(CCCCCF)c2ccccc12)C(C)C (stereo not shown) [5F-EMB-PINACA]	irritable, with unstable gait and tachypnea; also recorded: hematuria
CC(C)(C)C(NC(=O)c1nn(CC2CCCCC2)c2ccccc12)C(N)=O (stereo not shown) [ADB-CHMINACA]	irritable, with unstable gait and tachypnea
CC1(C)C(C(=O)c2cn(Cc3ccc(F)cc3)c3ccccc23)C1(C)C [FUB-144]	hematuria
CCCCCn1cc(C(=O)c2ccc3ccccc3c2)cc1-c1ccccc1C [JWH-370]	syncope

Test: Metabolite identification, HLM incubation and rat model combined (UHPLC-Q-Exactive Orbitrap MS)
Parameters: species or system human; rat
Settings: HLM incubation and rat model
Method: as §1, §2, §3

SMILES	metabolite that was a common outcome in both models
CCOC(=O)C(NC(=O)c1nn(CCCCCF)c2ccccc12)C(C)C (stereo not shown) [5F-EMB-PINACA]	ester hydrolysis metabolite
COC(=O)C(NC(=O)c1cn(CCCCCF)c2ccccc12)C(C)(C)C (stereo not shown) [5F-MDMB-PICA]	oxidative defluorination metabolite

Same assay, conditions: characteristic / defining metabolites by the screening criteria

SMILES	Characteristic Metabolite
COC(=O)C(NC(=O)c1nn(CCCCCF)c2ccccc12)C(C)(C)C (stereo not shown) [5F-ADB]	Ester hydrolysis, dehydrogenation, and acidification metabolites
CCOC(=O)C(NC(=O)c1nn(CCCCCF)c2ccccc12)C(C)C (stereo not shown) [5F-EMB-PINACA]	ester hydrolysis, ester hydrolysis, hydroxylated, and oxidative defluorination metabolites; also recorded: Ester hydrolysis, oxidative defluorination, ester hydrolysis, and hydroxylated metabolites
COC(=O)C(NC(=O)c1cn(CCCCCF)c2ccccc12)C(C)(C)C (stereo not shown) [5F-MDMB-PICA]	ester hydrolysis, de-N-alkylation, and oxidative defluorination metabolites; also recorded: Ester hydrolysis, de-N-alkyl side chain, and oxidative defluorination metabolite
CC(C)(C)C(NC(=O)c1nn(CC2CCCCC2)c2ccccc12)C(N)=O (stereo not shown) [ADB-CHMINACA]	Deamination, deamination of N-alkyl side chains, and hydrolytic metabolites
CC1(C)C(C(=O)c2cn(Cc3ccc(F)cc3)c3ccccc23)C1(C)C [FUB-144]	Ketogenic and hydroxylated, hydroxylated, and dehydrogenated metabolites
CCCCCn1cc(C(=O)c2ccc3ccccc3c2)cc1-c1ccccc1F [JWH-307]	Hydroxylation, ketogenic, and de-N-alkyl side chain metabolites
CCCCCn1cc(C(=O)c2ccc3ccccc3c2)cc1-c1ccccc1C [JWH-370]	Dihydrodiol, hydroxylated, and de-N-alkyl side chain metabolites
C=CCCCn1nc(C(=O)NC(C(=O)OC)C(C)(C)C)c2ccccc21 (stereo not shown) [MDMB-4en-PINACA]	Dihydrodiol, ester hydrolysis, ketogenic, and amide hydrolysis metabolites
CCCCCn1cc(C(=O)C2C(C)(C)C2(C)C)c2ccccc21 [UR-144]	Hydroxylation, de-N-alkyl side chains, and ketogenic metabolites

Same assay, conditions: in vitro (HLM) and in vivo (rat) models together

SMILES	Number of Metabolites	Number of Phase I Metabolites	Number of Phase II Metabolites
COC(=O)C(NC(=O)c1nn(CCCCCF)c2ccccc12)C(C)(C)C (stereo not shown) [5F-ADB]	25	17	8
CCOC(=O)C(NC(=O)c1nn(CCCCCF)c2ccccc12)C(C)C (stereo not shown) [5F-EMB-PINACA]	23	19	4
COC(=O)C(NC(=O)c1cn(CCCCCF)c2ccccc12)C(C)(C)C (stereo not shown) [5F-MDMB-PICA]	25	18	7
CC(C)(C)C(NC(=O)c1nn(CC2CCCCC2)c2ccccc12)C(N)=O (stereo not shown) [ADB-CHMINACA]	25	18	7
CC1(C)C(C(=O)c2cn(Cc3ccc(F)cc3)c3ccccc23)C1(C)C [FUB-144]	18	11	7
CCCCCn1cc(C(=O)c2ccc3ccccc3c2)cc1-c1ccccc1F [JWH-307]	20	12	8
CCCCCn1cc(C(=O)c2ccc3ccccc3c2)cc1-c1ccccc1C [JWH-370]	14	9	5
C=CCCCn1nc(C(=O)NC(C(=O)OC)C(C)(C)C)c2ccccc21 (stereo not shown) [MDMB-4en-PINACA]	14	12	2
CCCCCn1cc(C(=O)C2C(C)(C)C2(C)C)c2ccccc21 [UR-144]	24	15	9

Test: not given
Parameters: method as in PMID 32678962
Settings: in vitro and in vivo systems; cited from earlier work

SMILES	Phase II metabolites detected	most common Phase I reactions
CC(C)(NC(=O)c1cn(CCCCCF)c2ncccc12)c1ccccc1 [CUMYL-5F-P7ICA]	sulfated and glucuronidated	oxidative defluorination, monohydroxylation, ketone formation, and carboxylation

Test: not given
Settings: pooled HLM and real urine samples; cited from earlier work

SMILES	most abundant stage I metabolites
COC(=O)C(NC(=O)c1cn(CCCCCF)c2ccccc12)C(C)(C)C (stereo not shown) [5F-MDMB-PICA]	ester hydrolysis metabolites
